The record followed here is ChEMBL document CHEMBL5550186, “Exploring the Potential of Cyclic Peptidyl Antitumor Agents Derived from Natural Macrocyclic Peptide Phakellistatin 13” (J Med Chem, 2024).

Calls of active or inactive are those of the source. No cut-off for these calls is given here.

In series [1] the test system is Cell membrane. As to the kind of experiment: Induction of mitochondrial membrane potential loss in human HepG2 cells assessed as decrease in fluorescence at 10 uM measured after 12 hrs by Rhodamine 123 staining based flow cytometry (reference value: 66.8%). The arrangement: scale not given: the % may be the effect or the level left. In kind it is cell membranes.
The test system of series [2] is HepG2. As to the kind of experiment: Induction of cell cycle arrest in human HepG2 cells assessed as accumulation of cells at 2N phase at 20 uM incubated for 48 hrs by PI staining based flow cytometry analysis (reference value: 26.0%). In kind it is functional. For orientation: In flow cytometry, cells or beads pass a laser one at a time.
Series [3] can be described thus: Toxicity in Balb/c mouse assessed as effect on spleen at 6 mg/kg, iv measured after 14 days by H and E staining based analysis. It is filed as organism-based. To be noted: in vivo, 336 h, time 14 day.
For series [4], the system named is HepG2. Briefly: Antiproliferative activity against human HepG2 cells incubated for 48 hrs by MTT assay. To be noted: HepG2, 48 h. It is filed as functional, cell-based.
For series [5], the system named is HepG2. Briefly: Induction of cell cycle arrest in human HepG2 cells assessed as accumulation of cells at >G2/M phase at 5 uM incubated for 48 hrs by PI staining based flow cytometry analysis (reference value: 28.0%). It is filed as functional.
Series [6] relates to HepG2. Briefly: Induction of apoptosis in human HepG2 cells assessed as early apoptotic cells at 10 uM incubated for 48 hrs by annexin V-FITC/PI staining based flow cytometry analysis (reference value: 0.50%). In kind it is functional.
The subject of series [7] is HepG2. As to the kind of experiment: Induction of cell cycle arrest in human HepG2 cells assessed as accumulation of cells at 2N phase at 5 uM incubated for 48 hrs by PI staining based flow cytometry analysis (reference value: 26.0%). In kind it is functional.
In series [8] the test system is HepG2. As to the kind of experiment: Induction of cell cycle arrest in human HepG2 cells incubated for 48 hrs by PI staining based flow cytometry analysis. It is filed as functional. To be noted: dose 5-20 µM.
In series [9] the target is Voltage-gated inwardly rectifying potassium channel KCNH2 (Homo sapiens, UniProt Q12809). As to the kind of experiment: Inhibition of human ERG. It is filed as toxicity.
Chain of Voltage-gated inwardly rectifying potassium channel KCNH2 (Q12809 whole entry): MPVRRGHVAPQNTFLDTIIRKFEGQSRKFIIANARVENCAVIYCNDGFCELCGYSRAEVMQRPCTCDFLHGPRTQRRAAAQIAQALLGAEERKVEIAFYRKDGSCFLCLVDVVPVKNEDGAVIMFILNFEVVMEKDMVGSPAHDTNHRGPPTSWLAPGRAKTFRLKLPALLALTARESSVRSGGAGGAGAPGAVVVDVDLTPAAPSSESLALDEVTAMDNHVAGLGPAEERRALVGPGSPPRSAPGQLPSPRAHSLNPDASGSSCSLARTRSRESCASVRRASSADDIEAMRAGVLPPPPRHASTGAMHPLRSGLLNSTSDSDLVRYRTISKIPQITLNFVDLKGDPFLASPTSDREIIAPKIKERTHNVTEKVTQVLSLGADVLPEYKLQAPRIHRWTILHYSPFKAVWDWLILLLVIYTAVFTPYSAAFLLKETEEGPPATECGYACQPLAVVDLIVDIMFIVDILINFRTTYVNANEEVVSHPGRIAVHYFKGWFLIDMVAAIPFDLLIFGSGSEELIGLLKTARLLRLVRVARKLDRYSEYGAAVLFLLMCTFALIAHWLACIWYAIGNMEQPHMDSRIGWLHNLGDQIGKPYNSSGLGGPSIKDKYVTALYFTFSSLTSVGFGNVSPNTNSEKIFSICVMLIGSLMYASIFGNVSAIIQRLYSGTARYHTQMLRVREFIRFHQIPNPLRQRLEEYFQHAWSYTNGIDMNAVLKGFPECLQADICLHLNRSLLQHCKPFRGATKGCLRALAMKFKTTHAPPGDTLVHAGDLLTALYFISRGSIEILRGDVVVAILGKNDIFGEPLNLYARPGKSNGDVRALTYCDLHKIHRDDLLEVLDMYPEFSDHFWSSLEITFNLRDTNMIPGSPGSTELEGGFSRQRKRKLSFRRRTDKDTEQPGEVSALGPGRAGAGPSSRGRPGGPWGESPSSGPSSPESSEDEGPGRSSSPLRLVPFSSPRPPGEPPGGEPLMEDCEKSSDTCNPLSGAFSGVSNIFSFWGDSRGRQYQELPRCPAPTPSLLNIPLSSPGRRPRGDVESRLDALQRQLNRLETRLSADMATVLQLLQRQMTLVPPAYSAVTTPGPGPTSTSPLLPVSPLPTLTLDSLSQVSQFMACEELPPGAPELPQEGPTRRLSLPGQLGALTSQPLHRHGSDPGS
Series [10] relates to HepG2. Briefly: Induction of autophagy in human HepG2 cells assessed as increase in formation of autophagosomes at 5 to 10 uM incubated for 24 hrs by acridine orange staining based laser confocal microscopic analysis. Conditions: dose 5-10 µM. It is filed as functional, cell-based.
The subject of series [11] is Cell membrane. As to the kind of experiment: Induction of mitochondrial membrane potential loss in human HepG2 cells assessed as decrease in fluorescence at 20 uM measured after 48 hrs by Rhodamine 123 staining based flow cytometry (reference value: 66.8%). In kind it is cell membranes. The arrangement: scale not given: the % may be the effect or the level left.
A short description of series [12]: Upregulation of DUSP6 expression level in human HepG2 cells assessed as fold change by KEGG enrichment analysis. It is filed as functional.
Series [13] can be described thus: Toxicity in Balb/c mouse assessed as effect on lung at 6 mg/kg, iv measured after 14 days by H and E staining based analysis. It is filed as organism-based. To be noted: in vivo, 336 h, time 14 day.
For a further series, the system named is 4T1. As to the kind of experiment: Antitumor activity in mouse 4T1 cells xenografted in Balb/c mouse assessed as inhibition of tumor growth at 6 mg/kg, iv measured every two days for 14 days. It is filed as functional, organism-based. Conditions: time 14.0 day.
Series [14] relates to HepG2. As to the kind of experiment: Induction of cell cycle arrest in human HepG2 cells assessed as accumulation of cells at <2N phase at 10 uM incubated for 12 hrs by PI staining based flow cytometry analysis (reference value: 0.027%). It is filed as functional.
Series [15] in a line: Downregulation of NOTCH3 expression level in human HepG2 cells assessed as fold change by KEGG enrichment analysis. In kind it is functional.
Another series deals with BEL-7404 tumor cell line. Briefly: Antiproliferative activity against human BEL-7404 tumor cell line incubated for 48 hrs by MTT assay. Conditions: BEL-7404, 48 h. In kind it is functional, cell-based. In general terms: Formazan colour is commonly taken as a measure of viable cells.
A further series has as its system HeLa. Briefly: Antiproliferative activity against human HeLa cells incubated for 48 hrs by MTT assay. In kind it is functional, cell-based.
Series [16] is described as follows: Upregulation of SYVN1 expression level in human HepG2 cells assessed as fold change by KEGG enrichment analysis. It is filed as functional.
The test system of series [17] is HepG2. Briefly: Induction of morphological changes in human HepG2 cells assessed as deterioration of cell membrane integrity at 40 uM measured after 12 to 24 hrs by fluorescence inverted microscopic analysis. It is filed as functional, cell-based. To be noted: time 12-24 hrs.
Series [18] is described as follows: Upregulation of CDKN1A expression level in human HepG2 cells assessed as fold change by KEGG enrichment analysis. It is filed as functional.
For series [19], the system named is HepG2. As to the kind of experiment: Induction of apoptosis in human HepG2 cells assessed as increase in number of apoptotic cells at 5 to 10 uM measured after 24 hrs by annexin V-mCherry staining based fluorescence microscopic analysis. It is filed as functional, cell-based. Conditions: dose 5-10 µM.
A short description of series [20]: Upregulation of IL1A expression level in human HepG2 cells assessed as fold change by KEGG enrichment analysis. In kind it is functional.

`CC(C)C[C@H]1NC(=O)[C@H]([C@@H](C)OCc2ccccc2)NC(=O)[C@H]2CCCN2C(=O)CN2C(=O)c3ccccc3[C@@]2(O)CN(Cc2ccccc2)C(=O)[C@H](Cc2ccccc2)NC(=O)[C@H]2CCCN2C(=O)[C@H](Cc2c[nH]c3ccccc23)NC1=O`: the Activity with Cell membrane [1] is 55.6%; in the series on HepG2 [2], 21.9%; in series [3] it was “Non-Toxic”; in the series with HepG2 [5], 2.76%; in the series with HepG2 [6] it was 27.3%; in the series with HepG2 [7] it was 28.7%. Also, the Activity result in the series with HepG2 [8] was “Dose-Dependent Effect”; in the series with Cell membrane [11] it was 18.4%; in [13], “Non-Toxic”; in the series on HepG2 [14], 36.2%. Moreover, the IC50 in the series with HepG2 [4] is 11.6 µM; in the series with BEL-7404 tumor cell line, 17.1 µM; with HeLa, 16.9 µM. The “inhibition (INH)” value in [9] is on record as “Active”. Moreover, the result in the series on HepG2 [10], in the series on 4T1, in the series on HepG2 [17] and with HepG2 [19] was Active. Moreover, the “fold change (FC)” value in [12] is 1.112; in [15] it was -1.52; in series [16] it was 1.048; in series [18], 1.175; in series [20] it was 2.186.

By IC50 is commonly meant the point on the concentration scale where inhibition reaches its midpoint.
